In patent publication US8415333B2, “Bronchodilating diazaheteroaryls” (Respiratorious AB, priority 2009, dated 2013):

Columns and labels:
[1] = system: human bronchiols; test: Test Procedure A: remaining contraction of human bronchus preparation on LTD4 challenge after 1 h pre-treatment with test item; assay type: cell-based; conditions: 10 nM Leukotriene D4; for % RC 1 μM: test item 1 μM pre-treatment; for % RC 10 μm: test item 10 μm, 1 h pre-treatment
Experimental: (§1) The usefulness of the compounds, as defined in the embodiments herein, in treating, revoking, mitigating, alleviating and/or preventing a condition of the respiratory apparatus characterized by bronchoconstriction, were evaluated in a complex and relevant in vitro model, which is described in US 2006-0040254 A1 and Skogvall, S., Berglund, M., Dalence-Guzmán, M. F., Svensson, K., Jönsson, P., Persson, C. G. A and Sterner, O., Pulmonary Pharmacology and Therapeutics, vol 20:3, 2007, p. 273-280. All references disclosed herein are hereby incorporated in their entirety by reference.
(§2) Lung tissue was obtained from patients undergoing lobectomia or pulmectomia due to lung carcinoma. The tissue was placed in a dissection chamber continuously perfused with 10 ml min^−1 of a physiological saline solution (PSS) at room temperature. An airway was identified in the cut part of the lobe, and a bronchus of 10-20 mm length, and 1-2 mm diameter was obtained. The bronchus was cut into rings of a width of about 2-3 mm. Each bronchial ring was cleaved to obtain an about rectangular oblong preparation free from cartilage, one end of which was tied to a small steel hook connected to a force transducer, while the other end of the preparation was attached to a fixed hook. This is followed by a period of adjustment, as described below. The preparation was mounted in an atmosphere containing 12% of oxygen and 6% of CO2.
(§3) The experimental assay system consists of 8 chambers, each with a volume of 6 ml, and is continuously perfused with solutions at a rate of 3 ml/min at 37° C. The chambers are equipped with force transducers (model AME 801, SensoNor A/S, Horton, Norway) allowing the individual registration of parallel preparations. The force transducers are connected to micrometer screws for stretching of tissue preparations to the desired tone. Recordings from the experiments are sampled and analysed using software from ADInstrumets. The substances to be tested and contractile agent are injected upstream of the preparation(s).
(§4) Materials. PPS (physiological saline solution, in mM): NaCl, 117; KCl, 4.87; MgSO4, 0.60; NaHCO3, 25.0; CaCl2, 1.60; glucose, 5.23. The solution is saturated with a mixture of 94% oxygen and 6% carbon dioxide, giving a pH of 7.40±0.05 in the experimental chamber. All substances are prepared as stock solution dissolved in the vehicles ethanol or DMSO. Leukotriene D4 (LTD4; Cayman Ltd.): 10 μl of a 100 μM ethanol stock solution. Substance to be tested: 10-100 μl of a 0.01-0.1 M DMSO stock solution. Solution for establishing the passive tension level: calcium-free PSS+2 mM EGTA. To exclude effects by the test substance vehicle, DMSO was added during the entire experiment except during the presence of test substance.
After mounting as described above the preparation is allowed to adjust with a low passive tone in the experimental chamber. The composition of the gas is changed to 94% (v/v) of oxygen. After a short adjustment period, PSS with 10 nM LTD4 is added to the experimental chamber upstream of the preparation (A). The preparation is stretched repeatedly (B) until it exerts a contraction force of around 150 mg. When the contraction has levelled off, LTD4-free solution is administered for 1 hour (C), resulting in a relaxation. A second injection of 10 nM LTD4 (D) makes the preparation return to the tensioned state. At the peak tension leukotriene-free solution is again administered (E). After a third injection of 10 nM LTD4 (F) the preparation returns to the tensioned state. […] After 1 h exposure to the test item, 10 nM LTD4 is added, resulting in a contraction (H). If the test item is a bronkorelaxant, a substantially weaker contraction is now observed (H) in comparison with the control LTD4 contraction (F). To obtain a measure of the test substance's bronchorelaxing effect the test and control forces registered in the experiment are compared. […]

[2] = system: human bronchiols; test: Test Procedure B: remaining contraction of LTD4-contracted human bronchus preparation under sequential test item concentrations; assay type: cell-based; conditions: for % RC 0.1 μM: test item 0.1 μM for 1 h in 10 nM LTD4 PSS; for % RC 1 μM: test item 1 μM for 1 h in 10 nM LTD4 PSS; for % RC 1 μM / % RC 10 μM: sequential; for % RC 10 μM: test item 10 μM for 1 h in 10 nM LTD4 PSS
Experimental: as §1, §2, §3, §4
After mounting as described above the preparation is allowed to adjust with a low passive tone in the experimental chamber. The composition of the gas is changed to 94% (v/v) of oxygen. After a short adjustment period, PSS with 10 nM LTD4 is added to the experimental chamber upstream of the preparation (A). The preparation is stretched repeatedly (B) until it exerts a contraction force of around 150 mg. The preparation is kept at level contraction, plateau, with 10 nM LTD4 for 30 min (C). The preparation is then treated with 0.1 μM of the test item in 10 nM LTD4 PSS for 1 h. This is followed by the sequential treatment with 1 μM of the test item in 10 nM LTD4 PSS for 1 h (E) and finally 10 uM of the test item in 10 nM LTD4 PSS for 1 h (F). The experiment is concluded by adding calcium-free solution with addition of 2 mM EGTA for 20 min to establish the passive tension level base line (G).
The result, bronchorelaxing efficiency, is calculated as follows: by comparing and obtaining the ratio between the tensioned states (relative to base line) at the different concentrations, the bronchorelaxing efficiency of the test item is determined. The results are expressed as % remaining contraction (RC). […]

Row | SMILES | % RC 1 μM [1] [%] | % RC 10 μm [1] [%] | % RC 0.1 μM [2] [%] | % RC 1 μM [2] [%] | % RC 10 μM [2] [%]
1 | Cc1nc2ncccc2cc1C(=O)NCc1ccc(C(F)(F)F)cc1 [Example 2, 2-Methyl-N-(4-(trifluoromethyl)benzyl)-1,8-naphthyridine-3-carboxamide] | 77 | 23 |  |  | 
2 | Cc1nc2ncccc2cc1C(=O)NCc1cccc(C(F)(F)F)c1 [Example 14, 2-Methyl-N-(3-(trifluoromethyl)benzyl)-1,8-naphthyridine-3-carboxamide] | 76 | 15 |  |  | 
3 | Cc1nc2ncccc2cc1C(=O)NCc1ccc(-c2ccccc2)cc1 [Example 19, N-(Biphenyl-4-ylmethyl)-2-methyl-1,8-naphthyridine-3-carboxamide] | 41 | 17 |  |  | 
4 | Cc1ccc2cc(C(=O)NCc3ccc(C(C)(C)C)cc3)c(C)nc2n1 [Example 109, N-(4-tert-butylbenzyl)-2,7-dimethyl-1,8-naphthyridine-3-carboxamide] |  |  | 73 | 25 | 1
5 | Cc1nc2ncccc2cc1C(=O)OCc1csc(-c2ccccc2)n1 [Example 101, (2-Phenylthiazol-4-yl)methyl 2-methyl-1,8-naphthyridine-3-carboxylate] |  |  | 72 | 63 | 27
6 | Cc1nc2ncccc2cc1C(=O)NCc1ccc(N2CCN(C)CC2)c(C(F)(F)F)c1 [Example 62, 2-methyl-N-(4-(4-methylpiperazin-1-yl)-3-(trifluoromethyl)benzyl)-1,8-naphthyridine-3-carboxamide] |  |  | 92 | 63 | 17
7 | Cc1nc2ncccc2cc1C(=O)NCc1csc(-c2ccccc2)n1 [Example 4, 2-Methyl-N-((2-phenylthiazol-4-yl)methyl)-1,8-naphthyridine-3-carboxamide] |  |  | 85 | 39 | 4
8 | Cc1nc2ncccc2cc1C(=O)NCc1ccc(Cl)c(C(F)(F)F)c1 [Example 17, N-(4-Chloro-3-(trifluoromethyl)benzyl)-2-methyl-1,8-naphthyridine-3-carboxamide] | 67 | 8 |  |  | 
